Converted amounts (≈) assume the structure as drawn.
Assays:
[1] = tested on: 2.2.15 cells; experiment: Drug TC50 by MTT detection; format: cell-based; details: Reed-Muench
Method: 2.2.15 cells (all cells were purchased from Vertex Pharmaceutical Co., USA) in exponential growth phase were inoculated on 96-well culture plate, 2×10^5 cells/well, added with culture media containing PFA diluted in different concentration rates, 3 wells for each diluted concentration, placed in 37° C. CO2—containing incubator and cultivated for 48 h; the supernatant was discarded, 100 μl of MTT (0.5 mg/ml) in culture medium was added, cultivation was continuously performed at 37° C. for 4 h; each well was added to 100 μl of 50% DMF-20% SDS destaining solution, stood at 37° C. overnight; ELISA was used to measure optical density at wavelength of 570 nm (0D570).
In each experiment, 3 cell control wells and 3 blank controls well were set, the results were used in formula, (cell control OD570-drug-medicated cell OD570)/cell control OD570, to calculate cell death rate (%), and Reed-Muench method was used to calculate half toxic concentration TC50.

[2] = tested on: Hsc70; experiment: Inhibition effects of compound on Hsc70 in Huh7.5 cultured cell (qRT-PCR, Western blotting); format: cell-based; design: key to Hsc70 down-regulation rate (%): “—” represents no significant inhibition rate
Method: 2×10^5/ml Huh7.5 cells (purchased from Vertex Pharmaceutical Co., USA) were inoculated in an amount of 3 ml on 6-well culture plate, placed in an incubator with 37° C., 5% CO2 content, saturation humidity, and cultured for 24 h, added with different drug solutions (DM122) formulated with culture medium, and cell control was set. Cultivation was continuously performed in the incubator with 37° C., 5% CO2 content, saturation humidity for 24 h, a kit for RNA extraction was used to extract intracellular RNA from the cells, and one-step qRT-PCR was used to determine intracellular contents of Hsc70 and GAPDHRNA. After the cultivation of cells was performed for 48 h, the cells were digested and harvested, then the cells were split with CytoBuster™ Protein Extraction Buffer that contained many kinds of protease inhibitors, total intracellular proteins were extracted, and Western blotting was used to analyze the contents of Hsc70 and GAPDH proteins. In comparison with the cell control, the inhibition effects on Hsc70 upon action of different drugs were analyzed.

[3] = tested on: Hsc70; experiment: Detection of Hsc70 gene expression level upon action of compound on 2.2.15 cells (real-time fluorescent quantified PCR); format: cell-based; design: Hsc70 mRNA / Hsc70 down-regulation rate (%): unit not given here; details: for Hsc70 inhibition rate (down-regulation of Hsc70 expression activity, expressed in relative OMT ratio) / Hsc70 mRNA: 2.2.15 cells; for Hsc70 inhibition rate (down-regulation of Hsc70 expression activity, expressed in relative OMT ratio): relative to OMT (= 1); for Hsc70 mRNA: down-regulation of liver cell Hsc70 gene
Method: 2.2.15 cells (purchased from Vertex Pharmaceutical Co., USA) in a number of 1×10^6 were inocubated to 6-well plate, cultured in a culture medium containing 10% fetal calf serum for 24 hr, the original culture medium was discarded, replaced with a culutre medium containing 400 μg/ml OMTR, which was used as control. Compounds were firstly dissolved in MEM to form 20 mg/ml mother liquid, which was diluted with culture medium when used and then applied to cells. The compounds of Examples 1-114 were separately used for treatment for 12, 24, 36 hr, then cells were harvested for extraction of RNA and DNA, then the changes of Hsc70 mRNA and HBV DNA were detected by real-time fluorescent quantified PCR.

[4] = tested on: HCV; experiment: Inhibition effects of compounds on HCV in Huh7.5 cultured cell after HCV infection; format: cell-based; details: for EC50 (half effective concentration): virus not given, stands beside HCV inhibition rate
Method: 1×10^5/ml Huh7.5 cells (purchased from Vertex Pharmaceutical Co., USA) were inoculated in an amount of 0.1 ml on 96-well culture plate, placed in an incubator with 37° C., 5% CO2 content and saturation humidity, and cultured for 24 h, HCV virus in 45 IU/cell was used to infect Huh7.5, different drug solutions (DM122) formulated with culture medium were added, and cell control and HCV infection control were set. Cultivation was continuously performed in the incubator with 37° C., 5% CO2 content and saturation humidity for 72 h, kit for RNA extraction was used to extract intracellular RNA, one-step qRT-PCR was used to determine intracellular contents of HCV and GAPDH RNA, and the inhibition effects of drug on HCV infection was analyzed. […] In comparison with the virus control group, the inhibition effects on HCV infection upon action of different drugs were analyzed. […] This experiment was repeated for 3 times, * indicated […] in comparison with control, ** indicated p<0.01 in comparison with control.

[5] = tested on: Lamivudine-resistant strain (LRS M204V L180M) HBV; experiment: Inhibition effects on drug resistant type HBV (Real-time PCR of HBV DNA, Huh-7.5 cells); format: cell-based; details: 36 h; lamivudine 0.16n/mL, compound 6b 37 μg/mL
Method: (§1) Lamivudine-resistant strain (LRS M204V L180M) was used to transfect Huh-7.5 cells, lamivudine was used as positive control, lamivudine (0.16n/mL) and compound 6b (37 μg/mL) were separately used to treat wild type and LRS type HBV, after 36 h, Real-time PCR was used to determine HBV DNA levels, respectively, and the results were shown in FIG. 12.

[6] = tested on: wild type HBV; experiment: Inhibition effects on wild type HBV (Real-time PCR of HBV DNA, Huh-7.5 cells); format: cell-based; details: 36 h; lamivudine 0.16n/mL, compound 6b 37 μg/mL
Method: as §1

SMILES | CC50 (concentration to cause poisoning in half cells) [1] [µg/mL] | Hsc70 down-regulation rate (%) ([2]; 200 ug/ml (upper data)) | Hsc70 down-regulation rate (%) ([2]; 400 ug/ml (lower data)) | Hsc70 inhibition rate (down-regulation of Hsc70 expression activity, expressed in relative OMT ratio) [3] | HCV inhibition rate (%) ([4]; 200 ug/ml (upper data)) | HCV inhibition rate (%) ([4]; 400 ug/ml (lower data)) | EC50 (half effective concentration) [4] [µg/mL] | inhibition rate on drug-resistant HBV [5] [%] | inhibition rate on wild type HBV [6] [%] | Hsc70 mRNA [3] | melting point [°C] | Hsc70 down-regulation rate (%) ([3]; single value, concentration not given, values coincide with Table 1 relative OMT ratios)
Cc1cccc(CN2CC3CCCN4CCCC(C2CCCC(=O)O)C34)c1 (stereo not shown) [DM-139, N-(3-methylbenzyl) matrinic acid] | 885.1 (≈ 2390 µM) | 20.5 ± 24.8% | — | 1.39 | 88.5 ± 4.8 | 98.1 ± 1.0 | 98.65 (≈ 266 µM) |  |  |  |  | 
O=C(O)CCCC1C2CCCN3CCCC(CN1Cc1cccc([N+](=O)[O-])c1)C23 (stereo not shown) [DM-137, N-(3-nitrobenzyl) matrinic acid] | 471.59 (≈ 1170 µM) | — | — | 1.31 | 99.8 ± 0.1 | 99.7 ± 0.0 | <12.34 |  |  |  |  | 
O=C(O)CCC[C@@H]1[C@H]2CCCN3CCC[C@@H](CN1Cc1ccc([N+](=O)[O-])cc1)[C@@H]23 [DM-123, N-(4-nitrobenzyl) matrinic acid] | 455.7 (≈ 1130 µM) | 65.9 ± 6.9% | 70.5 ± 2.3% | −1.6 | 74.0 ± 7.8 | 81.1 ± 6.6 | 104.61 (≈ 261 µM) |  |  |  |  | 
Nc1ccn([C@@H]2CS[C@H](CO)O2)c(=O)n1 [lamivudine, reference compound] |  |  |  |  |  |  |  | 28 | 64 |  |  | 
Cc1ccc(CN2CC3CCCN4CCCC(C2CCCC(=O)O)C34)cc1 (stereo not shown) [DM-140, N-(4-methylbenzyl) matrinic acid] | >1000 | 53.8 ± 7.6% | — | 0.77 | 83.4 ± 1.8 | 96.0 ± 1.2 | 18.68 (≈ 50.4 µM) |  |  |  |  | 
O=C(O)CCC[C@@H]1[C@H]2CCCN3CCC[C@@H](CN1Cc1ccc(OC(F)(F)F)cc1)[C@@H]23 [DM-162, N-(4-trifluoromethoxybenzyl) matrinic acid] | 431.6 (≈ 980 µM) | — | — |  | 96.2 ± 0.3 | 99.1 ± 0.1 | 34.06 (≈ 77.3 µM) |  |  |  |  | 
O=C1C(O)C(O)CC2C3CCCN4CCCC(CN12)C34 (stereo not shown) [Compound 8, 13,14-dihydroxyl matrine] |  |  |  |  |  |  |  |  |  | 38.9 ± 0.13 | 156 to 158 | 
O=C(O)CCCC1NCC2CCCN3CCCC1C23 (stereo not shown) [DM-100, matrinic acid] |  |  |  | 1.02 |  |  |  |  |  |  | 185.7 to 187.7 | 
O=C(O)CCCC1C2CCCN3CCCC(CN1Cc1ccc(F)cc1)C23 (stereo not shown) [DM-132, N-(4-fluorobenzyl) matrinic acid] | 903.2 (≈ 2410 µM) | 80.1 ± 5.7% | 32.8 ± 26.8% | 0.99 | 67.7 ± 5.8 | 82.7 ± 5.6 | 52.86 (≈ 141 µM) |  |  |  |  | 
O=C(O)CCCC1C2CCCN3CCCC(CN1Cc1cccc(F)c1)C23 (stereo not shown) [DM-133, N-(3-fluorobenzyl) matrinic acid] | 527.8 (≈ 1410 µM) | — | — | 0.81 | 96.4 ± 0.8 | 98.6 ± 0.8 | 67.33 (≈ 180 µM) |  |  |  |  | 
O=C1CC(O)CC2C3CCCN4CCCC(CN12)C34 (stereo not drawn) [Compound 5, β-hydroxyl matrine] |  |  |  |  |  |  |  |  |  | 50.4 ± 0.19 | 211 to 213 | 
Cc1ccccc1CN1CC2CCCN3CCCC(C1CCCC(=O)O)C23 (stereo not shown) [DM-138, N-(2-methylbenzyl) matrinic acid] | 418.3 (≈ 1130 µM) | 34.8 ± 2.1% | 21.1 ± 12.0% | 1.35 | 91.5 ± 7.4 | 95.1 ± 2.9 | 82.49 (≈ 223 µM) |  |  |  |  | 
Cc1ccc(C(=O)N2CC3CCCN4CCCC(C34)C2CCCC(=O)O)cc1 [Compound L7, (5R)—N-(p-methylbenzoyl)matrinic acid] | >1000 | 63.3 ± 1.2% | — |  | 89.5 ± 2.0 | 95.7 ± 1.1 | 291.73 (≈ 759 µM) |  |  |  |  | 
CC(=O)N1C[C@H]2CCCN3CCC[C@@H](C23)C1CCCC(=O)O (stereo partly shown) |  |  |  |  |  |  |  |  |  |  | 127.4 to 129.6 | 
COC1=CCC2C3CCCN4CCCC(CN2C1=O)C34 (stereo not shown) [Compound 10, 14-methoxy sophocarpine] |  |  |  |  |  |  |  |  |  | 39.7 ± 0.16 | 110 to 111 | 
CC(=O)N1C[C@@H]2CCCN3CCC[C@@H](C23)C1CCCC(=O)O (stereo partly shown) [DM-101, N-acetyl matrinic acid] |  |  |  | 0.73 |  |  |  |  |  |  | 196.8 to 198.9 | 
COc1ccc(S(=O)(=O)N2CC3CCCN4CCCC(C34)C2CCCC(=O)O)cc1 (stereo not shown) [DM-103, N-(4-methoxybenzenesulfonyl) matrinic acid] | >1000 | 74.8 ± 5.6% | — |  | 69.1 ± 14.5 | 91.4 ± 1.8 | 135.71 (≈ 311 µM) |  |  |  |  | 
O=C(O)CCC[C@@H]1[C@H]2CCCN3CCC[C@@H](CN1Cc1ccccc1F)[C@@H]23 [DM-135, N-(2-fluorobenzyl)matrinic acid] | 620.68 (≈ 1660 µM) | 0.1 ± 5.6% | — | 0.41 | 74.3 ± 8.2 | 90.5 ± 2.0 | 29.86 (≈ 79.7 µM) |  |  |  |  | 
O=C(O)CCC[C@@H]1[C@H]2CCCN3CCC[C@@H](CN1Cc1ccc(Cl)c(Cl)c1)[C@@H]23 [DM-127, N-(3,4-dichlorobenzyl) matrinic acid] | 427.8 (≈ 1010 µM) |  |  | −2.92 |  |  | 113.64 (≈ 267 µM) |  |  |  |  | −2.92

Source: patent US20130190345A1, “MATRINIC ACID/MATRINE DERIVATIVES AND PREPARATION METHODS AND USES THEREOF” (priority 2010, published 2013)
